Source: patent US10947558B2, “Compositions and methods for inducing resistance to soybean cyst nematode via RNAi” (priority 2015, dated 2021)

Tested on: C. elegans (N2 wild type)
Test: RNA interference in C. elegans by soaking L2 worms in HgRPS23 dsRNA (vitality/lethality)
Type: in vivo
Conditions: 10 μM, positive control, after one day of soaking
Method: The effectiveness of HgRPS23 siRNA in silencing the worm's ribosomal protein gene was tested in C. elegans, following the previously published protocols (Alkharouf et al., 2007, Peng et al., 2016) with modifications. A T7 promoter sequence (5′-TAATACGACTCACTATAG-3′; SEQ ID NO: 3) was added to the 5′ ends of both the forward and reverse primer to amplify the 225 bp of HgRPS23 from pRD64 by PCR. The amplified PCR product was used to produce the double stranded (ds) in vitro transcript by the MEGAscript®T7 kit (Ambion/Invitrogen, Calsbad, Calif., USA).
The wt N2 strain of C. elegans was obtained from the CGC (Caenorhabditis Genetics Center) and maintained on NGM (Nematode Growth Medium) plates (60 mm petri dishes) at room temperature. The worms were grown and synchronized using protocols from the WormBase (www.wormbase.org). The L2 worms were soaked in 100 μl M9 buffer (22 mM KH2PO4, 4.7 mM NH4Cl, 43.6 mM Na2HPO4 and 2.1 mM NaCl) containing 50 mM octopamine (Sigma, St. Louis, Mo., USA) to increase pharyngeal pumping and 2 mg/ml HgRPS23 dsRNA. The negative control L2 worms were treated by soaking in M9 buffer containing 50 mM octopamine only. The positive control L2 worms were soaked in M9 buffer containing 50 mM octopamine and 10 μM cycloheximide (Sigma, St. Louis, Mo., USA) as a translation inhibitor. C. elegans worms were treated in the wells of a 96-well plate on a gentle shaker. […]

SMILES: C[C@@H]1C[C@@H]([C@H](O)CC2CC(=O)NC(=O)C2)C(=O)[C@@H](C)C1 [cycloheximide]
- vitality rate of N2 worms: approximately 20%
